The subject of the assay is Pigs. The conditions noted are these: riluzole ip 8 mg/kg; for average number of episodes of sustained arrhythmias: VT or VF lasting more than 15 seconds. The method, then:
Pigs of either sex and weighing between 20 and 35 kg were each anaesthetised with thiopentone sodium (10-15 mg/kg iv) and maintained under general anaesthesia with isoflurane (0.5-2% in oxygen). Artificial ventilation was maintained at a volume of 15 ml/kg and a rate of 12 breaths per minute. […] Subsequent to a mid-stemotomy and division of the pericardium, the left anterior coronary artery (LAD) was occluded mid-way along its length by permanent ligation.

The mark [1] stands for this setting: first three hours post commencement of hypoxia.
Setting [2] is: phase 2 (60-180 minutes post LAD occlusion).

Like-named read-outs stand apart in the source and are kept apart here.

Turning to `Nc1nc2ccc(OC(F)(F)F)cc2s1` [riluzole, 2-amino-6-tritluoromethoxybenzothiazole], under setting [1], the “animals which developed any non-sustained arrhythmias” value worked out at 50% and the “animals which developed any sustained arrhythmias” value stood at 50%. Where the note is “phase 1a (first 15 minutes of hypoxia following LAD occlusion)”, the “number of spontaneous PVCs (single), riluzole vs control group” value is given as “no significant difference”. Also, for the setting “phase 1a”, the “average number of episodes of sustained arrhythmias” value is reported as 0.17 episodes per animal; the “fall in number of episodes of non-sustained arrhythmias vs control group” value came to 43%; the “fall in number of episodes of sustained arrhythmias vs control group” value is 58%; the “number of geminy beats (bigeminy, trigeminy and quadrigeminy) occurring spontaneously, riluzole vs control group” value is “no significant”. The “number of multiple PVCs occurring spontaneously, riluzole vs control group” value (phase 1a) is reported as “no significant difference”. Moreover, the “number of spontaneous PVCs (single), riluzole vs control group” value (phase 1b (15-60 minutes post LAD occlusion)) is listed as “no significant difference”. Further, where the note is “phase 1b”, the “average number of episodes of sustained arrhythmias” value is on record as 0.33 episodes per animal; the “fall in number of episodes of non-sustained arrhythmias vs control group” value is 35%; the “fall in number of episodes of sustained arrhythmias vs control group” value is recorded as 86%; the “number of geminy beats (bigeminy, trigeminy and quadrigeminy) occurring spontaneously, riluzole vs control group” value was “no significant”. The “number of multiple PVCs occurring spontaneously, riluzole vs control group” value (phase 1b) was “no significant difference”. Further, under setting [2], the “average number of PVCs (single)” value is reported as 17 and the “drop in average number of PVCs (single) vs control group” value was found to be 91%. For the same compound, for the setting “phase 2”, the “average number of episodes of sustained arrhythmias” value amounted to 0.33 episodes per animal, the “average number of geminy beats” value is listed as 0, the “average number of multiple PVCs” value came out at 7 and the “drop in average number of geminy beats vs control group” value is given as 100%. In addition, under “phase 2”, the “drop in average number of multiple PVCs vs control group” value is listed as 93%, the “fall in number of episodes of non-sustained arrhythmias vs control group” value is 92% and the “fall in number of episodes of sustained arrhythmias vs control group” value is reported as 90%.

For the origin of these results see patent publication US9629817B2 (priority 2005, dated 2017).
